Patent publication US11124479B2, “Oligopyrroles as antagonists of islet amyloid polypeptide oligomerization” (New York University, priority 2017, dated 2021)
Each block holds one molecule with its values, some of them ahead of it.

Assays:
[1] = molecular target: T1, islet amyloid polypeptide (IAPP) (Homo sapiens, UniProt P10997); experiment: ThT-based kinetic assay of IAPP fibrillation; format: biochemical; details: for relative t50 of IAPP fibrillation versus control reaction / inhibition of IAPP fibrillation (in words): 15 μM IAPP, equimolar ratio; for inhibition of IAPP fibrillation (in words): FIG. 2C; for inhibition capacity towards IAPP fibrillation (in words): ThT assays under our conditions
T1 construct: IAPP is a 37 residue neuropancreatic hormone peptide; purchased Anaspec (Fremont, Calif.)
T1 sequence (P10997 34-70 limits assumed): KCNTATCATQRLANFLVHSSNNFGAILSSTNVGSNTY
Source text: The aggregation kinetics of IAPP was probed using an exogenous reporter, Thioflavin T (ThT), which quantifies the amount of fibers in solution without perturbing the aggregation kinetics of IAPP (see Wolfe, L. S.; Calabrese, M. F.; Nath, A.; Blaho, D. V.; Miranker, A. D.; Xiong, Y. Proc. Natl. Acad. Sci. U.S.A. 2010, 107, 16863-16868; Levine, H. Protein Sci. 1993, 2, 404-410). […] The kinetics of IAPP fibrillation was quantified using the reaction midpoint, t50, which is the time required to reach 50% fluorescence in the fibrillation reaction (FIG. 8).
Kinetic assays were conducted on a FlexStation 3 Multi-Mode Microplate reader from Molecular Devices (Sunnyvale, Calif.). Experiments were conducted in triplicate in a 96-well plate with a final volume of 200 μL per well. Every measurement was an average of 50 readings. The aggregation of IAPP was initiated by its addition from a stock solution (1 mM in DMSO) to phosphate buffer. The stoichiometry ratio for ThT to IAPP was 0.5:1. Peptide aggregation was monitored by ThT fluorescence (λex=445 nm and λem=485 nm). The blank sample contained all the components of the peptide samples except peptide. The sample data were processed by subtracting the blank and renormalizing the fluorescence intensity by setting the maximum value to 1.
Kinetic assays in the presence of the compounds of the invention were conducted under the same conditions. Small molecules were added from a stock solution (1 mM or 10 mM in DMSO) to keep the final concentration of DMSO less than 1.0% (v/v). Small molecules were added to the wells with ThT and buffer and mixed gently with a pipette before adding IAPP. To keep the conditions identical, an equal amount of DMSO was added to the wells with IAPP only reactions. For the aggregation kinetics of Aβ42, the peptide was dissolved in 1N NaOH (0.5-1 mM) and vortexed for 2 min. to ensure the complete solubility. The aggregation of 3 μM Aβ42 was initiated by addition of peptide from a stock solution (in 1 N NaOH, 0.5-1 mM) to phosphate buffer.
Kinetic profiles were processed using Origin (version 9.1). Kinetic curves were fit using the built-in sigmoidal fit. Each run was fit independently to extract the t50 (time required to reach 50% of the maximum fluorescence intensity). Error bars represent standard deviations from the mean of at least three independent experiments.
The membrane model system selected for the amyloid assays is a mixture of DOPG (dioleoylphosphatidylglycerol) and DOPC (dioleoylphosphatidylcholine) at 3:7 molar ratio, which mimics physiological conditions (Ono, K.; Condron, M. M.; Teplow, D. B. Proc. Natl. Acad. Sci. U.S.A. 2009, 106, 14745-14750). The lipid catalyzed aggregation of IAPP was initiated by adding freshly prepared 15 μM IAPP (1 mM stock solution in DMSO) to the phosphate buffer (50 mM NaPi, 150 mM KCl, pH 7.4) containing 15 μM ThT and 750 μM of unilamellar liposomes (LUVs, DOPG:DOPC, 3:7, d=100 nm).

[2] = Partition coefficient; format: physicochemical
[3] = molecular target: T2, IAPP-induced lipid membrane leakage (Homo sapiens, UniProt P10997); experiment: Fluorescein-based liposome leakage assay; format: biochemical; details: 4 μM IAPP, equimolar ratio
T2 construct: IAPP is a 37 residue neuropancreatic hormone peptide; purchased Anaspec (Fremont, Calif.)
T2 sequence (P10997 34-70 limits assumed): T1 sequence (P10997 34-70 limits assumed)
Source text: Colocalization of IAPP at the mitochondrial membrane and the subsequent membrane poration is considered to be one of the potential contributors to β-cell toxicity. Therefore, a liposome leakage assay could serve as a surrogate marker for IAPP induced cytotoxicity (see Last, N. B.; Miranker, A. D. Proc. Natl. Acad. Sci. U.S.A. 2013, 110, 6382-6387; and Last, N. B.; Rhoades, E.; Miranker, A. D. Proc. Natl. Acad. Sci. U.S.A. 2011, 108, 9460-9465). A previously reported fluorescein-based liposome leakage assay was employed to test the effect of ADH-101 on membrane associated α-helical intermediates of IAPP. Briefly, fluorescein-dextran conjugate (MW=70 kDa) was encapsulated in unilamaller extruded lipid vesicles (DOPG:DOPC, 3:7, d=100 nm). The size of fluorescein-dextran conjugate allows it to stay inside the lipid vesicles during IAPP mediated membrane poration. The leakage kinetics was probed by the quenching of fluorescence using a fluorescent quencher, DPX (p-xylene-bis-pyridinium […]). The kinetic profiles of leakage are single exponential with a decrease in fluorescence as a function of time. The leakage reaction was initiated by introducing 200 μM liposome into a solution of 4 μM IAPP and 6 mM of DPX. The introduction of the excess ionic concentration by DPX was counterbalanced by adjusting the buffer concentration. The kinetics of the leakage mediated by IAPP yielded a single exponential profile with a leakage rate of 7.3±1.1×10^−3 s^−1 (FIG. 5A).
The kinetics of liposome leakage induced by IAPP was monitored on QuantaMaster C-61 fluorescence spectrometer (Photon Technology International, Edison, N.J.) at 25° C. […] The stock solution of IAPP used in the measurements was kept in water at a concentration of 1 mM. The stock solution of water soluble quencher, DPX (p-xylene-bis-pyridinium bromide) was prepared in buffer (100 mM KCl, 50 mM NaPi, pH 7.4) at a concentration of 100 mM. The small molecules used in the leakage assay were dissolved in DMSO with a concentration range of 10-20 mM. The final concentration of dye encapsulating liposome, DPX, human IAPP, and small molecules were 200, 6000, 4, and 4 μM respectively. The final buffer concentration was corrected using higher concentration of buffer to keep the osmolality balanced. […] To determine the leakage rate constant, first the fluorescence was normalized and corrected by subtracting it from normalized fluorescence of control reaction. The corrected fluorescence was fit using equation given below (using Origin 9.1). All the experiments were performed in triplicate and the error values presented are standard deviations. a*exp(−b*x)+c (2) a=amplitude from 100% unleaked to 0% leaked c=final fraction of unleaked liposome y=change in fluorescence b=leakage rate constant

[4] = lipid catalyzed (750 μM LUVs, DOPG:DOPC 3:7)

SMILES: CCOC(=O)c1cc([N+](=O)[O-])cn1CCC(=O)O [ADH-117]
inhibition of IAPP fibrillation (in words) [1]: ineffective

SMILES: COC(=O)c1ccc(NC(=O)c2ccc(NC(=O)c3ccc([N+](=O)[O-])c(OCC(=O)O)n3)c(OCC(C)C)n2)c(OCC(C)C)n1 [ADH-201, reference compound]
relative t50 of IAPP fibrillation versus control reaction [1, 4]: 1.4 fold

SMILES: COC(=O)c1ccc(NC(=O)c2ccc(NC(=O)c3ccc([N+](=O)[O-])c(OCC(=O)O)n3)c(OCC(C)C)n2)c(OCC(=O)O)n1 [ADM-11, reference compound]
relative t50 of IAPP fibrillation versus control reaction [1, 4]: 1.9 fold
logP [2]: -0.8

SMILES: CC1=C/C(=C(\c2ccc(N)c(S(=O)(=O)[O-])c2)c2ccc(N)c(S(=O)(=O)O)c2)C=C(S(=O)(=O)[O-])C1=N.[Na+].[Na+] [AF, Acid fuchsin, reference compound]
effect on IAPP induced liposome leakage (in words) [3]: unable to effect
inhibition capacity towards IAPP fibrillation (in words) [1]: moderate inhibition capacity

SMILES: COc1cc(/C=C/C(=O)CC(=O)/C=C/c2ccc(O)c(OC)c2)ccc1O [Curcumin]
inhibition capacity towards IAPP fibrillation (in words) [1]: moderate inhibition capacity

SMILES: O=C(O[C@@H]1Cc2c(O)cc(O)cc2O[C@@H]1c1cc(O)c(O)c(O)c1)c1cc(O)c(O)c(O)c1 [EGCG, reference compound]
effect on IAPP induced liposome leakage (in words) [3]: unable to effect
inhibition capacity towards IAPP fibrillation (in words) [1]: moderate inhibition capacity

Now from value to molecule:

relative t50 of IAPP fibrillation versus control reaction ([1]; de novo / lipid free): 2.6 fold
relative t50 of IAPP fibrillation versus control reaction [1, 4]: 1.5 fold
SMILES: CCOC(=O)c1cc(NC(=O)c2cc(NC(=O)c3cc([N+](=O)[O-])cn3CC(C)C)cn2CC(C)C)cn1CC(C)C [ADH-105]

inhibition of IAPP fibrillation (in words) [1]: ineffective
SMILES: CCOC(=O)c1cc([N+](=O)[O-])cn1CC(C)C [ADH-113]

antagonist of oligomerization, fibrillation, and/or aggregation of IAPP (in words) [1]: effective antagonist
SMILES: CCOC(=O)c1cc(NC(=O)c2cc(NC(=O)c3cc([N+](=O)[O-])cn3CCCc3ccccc3)cn2CC(C)C)cn1CCC(=O)O [ADH-120]
